Test results as given in ChEMBL document CHEMBL4138231 (Eur J Med Chem, 2018).
Activity calls are given as the source filed them. The rule behind the calls is not given here.

Columns and labels:
[1] = tested on: K562; assay: Antiproliferative activity against human K562 cells after 72 hrs by CCK8 assay; type: functional
[2] = biological target: Serine/threonine-protein kinase PLK2 (Homo sapiens, UniProt Q9NYY3); assay: Inhibition human recombinant full length GST-tagged Plk2 expressed in baculovirus expression system after 1 hr by FRET-based Z'-Lyte assay
Chain of Serine/threonine-protein kinase PLK2 (Q9NYY3 whole entry): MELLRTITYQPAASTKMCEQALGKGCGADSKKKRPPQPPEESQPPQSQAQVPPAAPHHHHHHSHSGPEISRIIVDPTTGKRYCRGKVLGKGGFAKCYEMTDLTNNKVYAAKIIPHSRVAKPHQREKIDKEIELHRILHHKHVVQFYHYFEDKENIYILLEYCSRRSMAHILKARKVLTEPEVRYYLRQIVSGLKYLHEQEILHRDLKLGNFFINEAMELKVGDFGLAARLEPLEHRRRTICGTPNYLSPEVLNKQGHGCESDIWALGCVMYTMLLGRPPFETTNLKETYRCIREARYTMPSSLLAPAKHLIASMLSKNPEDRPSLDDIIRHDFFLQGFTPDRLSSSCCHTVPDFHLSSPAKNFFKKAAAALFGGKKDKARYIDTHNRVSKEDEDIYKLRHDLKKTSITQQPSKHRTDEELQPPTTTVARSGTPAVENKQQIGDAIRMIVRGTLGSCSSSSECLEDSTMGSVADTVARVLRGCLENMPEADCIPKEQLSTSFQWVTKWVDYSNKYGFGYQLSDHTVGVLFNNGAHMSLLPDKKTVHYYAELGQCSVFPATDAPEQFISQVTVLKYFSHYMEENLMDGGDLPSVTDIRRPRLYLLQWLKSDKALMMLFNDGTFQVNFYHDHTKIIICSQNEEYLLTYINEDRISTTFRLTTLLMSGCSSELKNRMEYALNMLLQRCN

[3] = tested on: MCF7; assay: Antiproliferative activity against human MCF7 cells after 72 hrs by CCK8 assay; type: functional
[4] = tested on: Huh-7; assay: Antiproliferative activity against human HuH7 cells after 72 hrs by CCK8 assay; type: functional
[5] = tested on: A549; assay: Antiproliferative activity against human A549 cells after 72 hrs by CCK8 assay; type: functional
[6] = tested on: NCI-H1975; assay: Antiproliferative activity against human NCI-H1975 cells after 72 hrs by CCK8 assay; type: functional
[7] = tested on: HeLa; assay: Antiproliferative activity against human HeLa cells after 72 hrs by CCK8 assay; type: functional
[8] = biological target: Serine/threonine-protein kinase PLK3 (Homo sapiens, UniProt Q9H4B4); assay: Inhibition human recombinant GST-tagged Plk3 catalytic domain (58 to 340 residues) expressed in baculovirus expression system after 1 hr by FRET-based Z'-Lyte assay
Chain of Serine/threonine-protein kinase PLK3 (Q9H4B4 whole entry, the tested form may be a part): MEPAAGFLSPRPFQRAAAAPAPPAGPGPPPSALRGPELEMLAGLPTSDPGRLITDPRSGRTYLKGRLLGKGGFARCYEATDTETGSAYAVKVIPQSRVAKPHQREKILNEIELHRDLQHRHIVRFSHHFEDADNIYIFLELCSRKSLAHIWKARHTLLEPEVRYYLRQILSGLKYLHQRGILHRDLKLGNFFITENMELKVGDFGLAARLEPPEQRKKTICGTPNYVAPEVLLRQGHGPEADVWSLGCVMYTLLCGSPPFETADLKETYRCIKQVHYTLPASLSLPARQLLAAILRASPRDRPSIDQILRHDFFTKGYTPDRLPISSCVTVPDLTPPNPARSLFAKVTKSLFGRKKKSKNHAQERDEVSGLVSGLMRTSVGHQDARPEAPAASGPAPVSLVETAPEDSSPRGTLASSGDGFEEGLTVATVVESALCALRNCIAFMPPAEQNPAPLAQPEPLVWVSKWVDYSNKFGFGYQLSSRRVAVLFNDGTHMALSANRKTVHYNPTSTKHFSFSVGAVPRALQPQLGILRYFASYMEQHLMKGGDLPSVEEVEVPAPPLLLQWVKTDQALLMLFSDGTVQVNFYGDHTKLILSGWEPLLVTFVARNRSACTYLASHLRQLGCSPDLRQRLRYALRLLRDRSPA

| GI50 ([1]; K562, 72 h) | IC50 [2] | GI50 ([3]; MCF7, 72 h) | GI50 ([4]; Huh-7, 72 h) | GI50 ([5]; A549, 72 h) | GI50 ([6]; NCI-H1975, 72 h) | GI50 [7] | IC50 [8] | GI50 [4] | GI50 [3] | GI50 [6] | GI50 [5] | GI50 [1] | SMILES |
| --- | --- | --- | --- | --- | --- | --- | --- | --- | --- | --- | --- | --- | --- |
| 2260 nM | 190 nM | 3000 nM | 8880 nM | 15000 nM | 21700 nM | 2670 nM | – | – | – | – | – | – | CCCNS(=O)(=O)c1ccc(Nc2ncc3c(n2)N(c2ccn(C)n2)C(CC)C(=O)N3C)cc1 (racemic) |
| 13400 nM | 192 nM | 21600 nM | – | 48800 nM | 25800 nM | 23700 nM | – | inactive | – | – | – | – | CCC1C(=O)N(C)c2cnc(Nc3ccc(S(=O)(=O)NCCCO)cc3)nc2N1c1ccn(C)n1 (racemic) |
| 5600 nM | 159 nM | 4810 nM | 5070 nM | 19200 nM | 10200 nM | 4970 nM | > 10000 nM | – | – | – | – | – | CCC1C(=O)N(C)c2cnc(-n3ccc4cc(C(=O)NCC(C)C)ccc43)nc2N1c1ccn(C)n1 (racemic) |
| 7300 nM | 311 nM | 8350 nM | 8520 nM | 31600 nM | 15000 nM | 5310 nM | – | – | – | – | – | – | CCC1C(=O)N(C)c2cnc(Nc3ccc(S(=O)(=O)NCC(C)C)cc3)nc2N1c1ccn(C)n1 (racemic) |
| 705 nM | 21.8 nM | 403 nM | 411 nM | 750 nM | 1040 nM | 561 nM | – | – | – | – | – | – | CC[C@@H]1C(=O)N(C)c2cnc(Nc3ccc(S(=O)(=O)NCC(C)C)cc3)nc2N1C1CCCC1 |
| – | 478 nM | – | – | – | – | inactive | – | inactive | inactive | inactive | inactive | inactive | CCC1C(=O)N(C)c2cnc(Nc3ccc(S(=O)(=O)NCCO)cc3)nc2N1c1ccn(C)n1 (racemic) |
| 222 nM | 3.4 nM | 151 nM | 99 nM | 183 nM | 1410 nM | 148 nM | – | – | – | – | – | – | CC[C@@H]1C(=O)N(C)c2cnc(Nc3ccc(S(=O)(=O)NC)cc3)nc2N1C1CCCC1 |
| 4240 nM | 191 nM | 5780 nM | 3750 nM | 10600 nM | 4120 nM | 4320 nM | – | – | – | – | – | – | CCCCNS(=O)(=O)c1ccc(Nc2ncc3c(n2)N(c2ccn(C)n2)C(CC)C(=O)N3C)cc1 (racemic) |
| 2890 nM | 71.5 nM | 3750 nM | 11900 nM | 12600 nM | 18800 nM | 2200 nM | – | – | – | – | – | – | CCC1C(=O)N(C)c2cnc(Nc3ccc(S(=O)(=O)NC)cc3)nc2N1c1ccn(C)n1 (racemic) |
| – | 121 nM | 36600 nM | – | – | – | 12600 nM | – | inactive | – | inactive | inactive | inactive | CCC1C(=O)N(C)c2cnc(Nc3ccc(S(N)(=O)=O)cc3)nc2N1c1ccn(C)n1 (racemic) |
| 548 nM | 17.8 nM | 344 nM | 278 nM | 563 nM | 2100 nM | 459 nM | – | – | – | – | – | – | CCCNS(=O)(=O)c1ccc(Nc2ncc3c(n2)N(C2CCCC2)[C@H](CC)C(=O)N3C)cc1 |

Further lines, the molecule ahead of its results:

| SMILES | GI50 ([1]; K562, 72 h) | IC50 [2] | GI50 ([3]; MCF7, 72 h) | GI50 ([4]; Huh-7, 72 h) | GI50 ([5]; A549, 72 h) | GI50 ([6]; NCI-H1975, 72 h) | GI50 [7] | IC50 [8] | GI50 [4] | GI50 [3] | GI50 [6] | GI50 [5] | GI50 [1] |
| --- | --- | --- | --- | --- | --- | --- | --- | --- | --- | --- | --- | --- | --- |
| CC[C@@H]1C(=O)N(C)c2cnc(Nc3ccc(S(=O)(=O)NC4CCCC4)cc3)nc2N1C1CCCC1 | 872 nM | 23.9 nM | 688 nM | 389 nM | 1150 nM | 1710 nM | 609 nM | – | – | – | – | – | – |
| CC[C@@H]1C(=O)N(C)c2cnc(-n3ccc4cc(C(=O)NC5CCCC5)ccc43)nc2N1C1CCCC1 | 414 nM | 7.06 nM | 795 nM | 259 nM | 670 nM | 856 nM | 247 nM | > 20000 nM | – | – | – | – | – |
| CC[C@@H]1C(=O)N(C)c2cnc(Nc3ccc(S(=O)(=O)NCCCO)cc3)nc2N1C1CCCC1 | 331 nM | 8.16 nM | 363 nM | 262 nM | 437 nM | 2140 nM | 357 nM | – | – | – | – | – | – |
| CC[C@@H]1C(=O)N(C)c2cnc(-n3ccc4cc(C(=O)NC)ccc43)nc2N1C1CCCC1 | 705 nM | 8.6 nM | 1000 nM | 842 nM | 2200 nM | 1370 nM | 768 nM | – | – | – | – | – | – |
| CCCNC(=O)c1ccc2c(ccn2-c2ncc3c(n2)N(C2CCCC2)[C@H](CC)C(=O)N3C)c1 | 395 nM | 11.3 nM | 592 nM | 689 nM | 1640 nM | 786 nM | 238 nM | – | – | – | – | – | – |
| CCC1C(=O)N(C)c2cnc(-n3ccc4cc(C(N)=O)ccc43)nc2N1c1ccn(C)n1 (racemic) | 31300 nM | 384 nM | – | – | 39500 nM | – | 27400 nM | > 10000 nM | inactive | inactive | inactive | – | – |
| CC[C@@H]1C(=O)N(C)c2cnc(Nc3ccc(C(=O)NC4CCN(C)CC4)cc3OC)nc2N1C1CCCC1 [BI-2536] | 68 nM | – | 67 nM | 28 nM | 57 nM | 230 nM | 34 nM | – | – | – | – | – | – |
| CCC1C(=O)N(C)c2cnc(-n3ccc4cc(C(=O)NC5CCCC5)ccc43)nc2N1c1ccn(C)n1 (racemic) | 31300 nM | 90.9 nM | – | – | 39500 nM | – | 27400 nM | – | inactive | inactive | inactive | – | – |
| CC[C@@H]1C(=O)N(C)c2cnc(-n3ccc4cc(F)ccc43)nc2N1C1CCCC1 | 21200 nM | 969 nM | – | 16000 nM | – | 46500 nM | inactive | > 20000 nM | – | inactive | – | inactive | – |
| CC[C@@H]1C(=O)N(C)c2cnc(-n3ccc4ccccc43)nc2N1C1CCCC1 | 6910 nM | – | 17200 nM | 4690 nM | 57500 nM | 28300 nM | 33900 nM | > 20000 nM | – | – | – | – | – |
| CC[C@@H]1C(=O)N(C)c2cnc(Nc3ccc(S(=O)(=O)NCCO)cc3)nc2N1C1CCCC1 | 546 nM | 7.86 nM | 344 nM | 278 nM | 563 nM | 2100 nM | 459 nM | – | – | – | – | – | – |
| CCCCNC(=O)c1ccc2c(ccn2-c2ncc3c(n2)N(C2CCCC2)[C@H](CC)C(=O)N3C)c1 | 673 nM | 16.5 nM | 634 nM | 683 nM | 1160 nM | 990 nM | 346 nM | – | – | – | – | – | – |
| CC[C@@H]1C(=O)N(C)c2cnc(-n3ccc4cc(C(N)=O)ccc43)nc2N1C1CCCC1 | 1850 nM | 28.5 nM | 1830 nM | 3090 nM | 4350 nM | 3380 nM | 674 nM | – | – | – | – | – | – |
| CC[C@@H]1C(=O)N(C)c2cnc(Nc3ccc(S(=O)(=O)Nc4ccccc4)cc3)nc2N1C1CCCC1 | 4180 nM | 54.4 nM | 5430 nM | 2790 nM | 4150 nM | 6000 nM | 5140 nM | – | – | – | – | – | – |
| CCCCNS(=O)(=O)c1ccc(Nc2ncc3c(n2)N(C2CCCC2)[C@H](CC)C(=O)N3C)cc1 | 412 nM | 19.9 nM | 459 nM | 225 nM | 477 nM | 1610 nM | 451 nM | – | – | – | – | – | – |
| CC[C@@H]1C(=O)N(C)c2cnc(-n3ccc4cc(C(=O)NC(C)C)ccc43)nc2N1C1CCCC1 | 786 nM | 17.4 nM | 1670 nM | 1660 nM | 1780 nM | 1840 nM | 292 nM | – | – | – | – | – | – |
| CCC1C(=O)N(C)c2cnc(-n3ccc4cc(C(=O)NC)ccc43)nc2N1c1ccn(C)n1 (racemic) | 13300 nM | 218 nM | 35400 nM | 13200 nM | 43100 nM | 35700 nM | 6330 nM | > 10000 nM | – | – | – | – | – |
| CCCCNC(=O)c1ccc2c(ccn2-c2ncc3c(n2)N(c2ccn(C)n2)C(CC)C(=O)N3C)c1 (racemic) | 14100 nM | 159 nM | 8990 nM | 8670 nM | 37300 nM | 12000 nM | 4260 nM | > 10000 nM | – | – | – | – | – |
| CCNC(=O)c1ccc2c(ccn2-c2ncc3c(n2)N(c2ccn(C)n2)C(CC)C(=O)N3C)c1 (racemic) | 12800 nM | 243 nM | 13200 nM | 20300 nM | 21700 nM | – | 11100 nM | > 10000 nM | – | – | inactive | – | – |
| CCNC(=O)c1ccc2c(ccn2-c2ncc3c(n2)N(C2CCCC2)[C@H](CC)C(=O)N3C)c1 | 428 nM | 4.88 nM | 784 nM | 596 nM | 1120 nM | 882 nM | 418 nM | – | – | – | – | – | – |
| CCCNC(=O)c1ccc2c(ccn2-c2ncc3c(n2)N(c2ccn(C)n2)C(CC)C(=O)N3C)c1 (racemic) | 8270 nM | 207 nM | 6420 nM | 7280 nM | – | 11000 nM | 6160 nM | > 10000 nM | – | – | – | inactive | – |
| CC[C@@H]1C(=O)N(C)c2cnc(Nc3ccc(S(N)(=O)=O)cc3)nc2N1C1CCCC1 | 470 nM | 10.2 nM | 394 nM | 1300 nM | 3390 nM | 5290 nM | 317 nM | – | – | – | – | – | – |
| CC[C@@H]1C(=O)N(C)c2cnc(-n3ccc4cc(C(=O)NCC(C)C)ccc43)nc2N1C1CCCC1 | 638 nM | 18.6 nM | 953 nM | – | 1730 nM | – | 3280 nM | – | inactive | – | inactive | – | – |
